Laboratory results: ChEMBL document CHEMBL4507297, “Data for DCP probe PF-04457845” (2021)

Tests used:
[1] = biological target: ALK tyrosine kinase receptor (Homo sapiens) (UniProt Q9UM73); conditions: Compound concentration 1000.0 nM
[2] = biological target: Tyrosine-protein kinase receptor UFO (Homo sapiens) (UniProt P30530); conditions: Compound concentration 1000.0 nM
[3] = biological target: Bone morphogenetic protein receptor type-1A (Homo sapiens) (UniProt P36894); conditions: Compound concentration 1000.0 nM
[4] = biological target: Serine/threonine-protein kinase B-raf (Homo sapiens) (UniProt P15056); conditions: Compound concentration 1000.0 nM
Sequence of Serine/threonine-protein kinase B-raf (Homo sapiens) (P15056 whole entry): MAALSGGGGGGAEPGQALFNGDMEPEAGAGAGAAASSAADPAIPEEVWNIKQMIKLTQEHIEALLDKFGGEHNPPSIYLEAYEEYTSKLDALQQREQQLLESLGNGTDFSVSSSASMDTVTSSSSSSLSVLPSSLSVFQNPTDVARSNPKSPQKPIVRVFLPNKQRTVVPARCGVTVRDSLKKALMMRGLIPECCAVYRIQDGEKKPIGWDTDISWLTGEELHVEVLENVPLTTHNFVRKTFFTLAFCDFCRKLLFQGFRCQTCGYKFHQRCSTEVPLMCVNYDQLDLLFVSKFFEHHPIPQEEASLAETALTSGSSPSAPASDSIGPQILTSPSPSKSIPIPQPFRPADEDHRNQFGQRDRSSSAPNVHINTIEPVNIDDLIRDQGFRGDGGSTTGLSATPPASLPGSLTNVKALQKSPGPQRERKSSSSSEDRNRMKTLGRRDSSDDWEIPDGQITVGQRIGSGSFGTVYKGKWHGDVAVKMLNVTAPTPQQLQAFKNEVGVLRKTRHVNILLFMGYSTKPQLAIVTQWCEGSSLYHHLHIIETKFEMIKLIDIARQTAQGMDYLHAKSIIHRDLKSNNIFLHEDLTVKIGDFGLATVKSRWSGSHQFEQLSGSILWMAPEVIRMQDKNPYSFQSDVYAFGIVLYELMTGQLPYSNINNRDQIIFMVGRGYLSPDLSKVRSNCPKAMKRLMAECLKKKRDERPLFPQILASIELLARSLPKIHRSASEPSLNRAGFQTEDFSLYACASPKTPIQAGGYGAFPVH

[5] = test system: Serine/threonine-protein kinase B-raf (Homo sapiens), P15056 [V600E]; conditions: Compound concentration 1000.0 nM
Sequence of Serine/threonine-protein kinase B-raf (Homo sapiens), P15056 [V600E] (P15056 whole entry V600E): as the sequence (P15056 whole entry) above, with V600E counted along it

[6] = biological target: Cyclin-dependent kinase 3 (Homo sapiens) (UniProt Q00526); conditions: Compound concentration 1000.0 nM
[7] = biological target: Casein kinase I isoform epsilon (Homo sapiens) (UniProt P49674); conditions: Compound concentration 1000.0 nM
Sequence of Casein kinase I isoform epsilon (Homo sapiens) (P49674 whole entry, looked up, canonical isoform): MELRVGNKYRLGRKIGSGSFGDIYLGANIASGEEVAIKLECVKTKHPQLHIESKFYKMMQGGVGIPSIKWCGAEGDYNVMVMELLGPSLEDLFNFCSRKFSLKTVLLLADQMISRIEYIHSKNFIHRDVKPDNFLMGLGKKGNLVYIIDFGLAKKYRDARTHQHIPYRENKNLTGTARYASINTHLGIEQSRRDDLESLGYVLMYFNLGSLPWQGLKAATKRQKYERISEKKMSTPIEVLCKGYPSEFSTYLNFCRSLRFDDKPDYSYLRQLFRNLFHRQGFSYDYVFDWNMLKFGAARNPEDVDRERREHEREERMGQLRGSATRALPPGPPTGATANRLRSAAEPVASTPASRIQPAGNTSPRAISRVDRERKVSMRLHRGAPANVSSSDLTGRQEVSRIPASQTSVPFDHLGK

[8] = biological target: Serine/threonine-protein kinase DCLK2 (Homo sapiens) (UniProt Q8N568); conditions: Compound concentration 1000.0 nM
[9] = biological target: Epithelial discoidin domain-containing receptor 1 (Homo sapiens) (UniProt Q08345); conditions: Compound concentration 1000.0 nM
[10] = test system: Receptor-type tyrosine-protein kinase FLT3 (Homo sapiens), P36888 [D835H]; conditions: Compound concentration 1000.0 nM
[11] = test system: Receptor-type tyrosine-protein kinase FLT3 (Homo sapiens), P36888 [R834Q]; conditions: Compound concentration 1000.0 nM
[12] = biological target: Cyclin-G-associated kinase (Homo sapiens) (UniProt O14976); conditions: Compound concentration 1000.0 nM
[13] = biological target: G protein-coupled receptor kinase 3 (Homo sapiens) (UniProt P35626); conditions: Compound concentration 1000.0 nM
[14] = biological target: Serine/threonine-protein kinase ICK (Homo sapiens) (UniProt Q9UPZ9); conditions: Compound concentration 1000.0 nM
[15] = biological target: Interleukin-1 receptor-associated kinase 1 (Homo sapiens) (UniProt P51617); conditions: Compound concentration 1000.0 nM
[16] = biological target: Serine/threonine-protein kinase 10 (Homo sapiens) (UniProt O94804); conditions: Compound concentration 1000.0 nM
Sequence of Serine/threonine-protein kinase 10 (Homo sapiens) (O94804 whole entry, looked up): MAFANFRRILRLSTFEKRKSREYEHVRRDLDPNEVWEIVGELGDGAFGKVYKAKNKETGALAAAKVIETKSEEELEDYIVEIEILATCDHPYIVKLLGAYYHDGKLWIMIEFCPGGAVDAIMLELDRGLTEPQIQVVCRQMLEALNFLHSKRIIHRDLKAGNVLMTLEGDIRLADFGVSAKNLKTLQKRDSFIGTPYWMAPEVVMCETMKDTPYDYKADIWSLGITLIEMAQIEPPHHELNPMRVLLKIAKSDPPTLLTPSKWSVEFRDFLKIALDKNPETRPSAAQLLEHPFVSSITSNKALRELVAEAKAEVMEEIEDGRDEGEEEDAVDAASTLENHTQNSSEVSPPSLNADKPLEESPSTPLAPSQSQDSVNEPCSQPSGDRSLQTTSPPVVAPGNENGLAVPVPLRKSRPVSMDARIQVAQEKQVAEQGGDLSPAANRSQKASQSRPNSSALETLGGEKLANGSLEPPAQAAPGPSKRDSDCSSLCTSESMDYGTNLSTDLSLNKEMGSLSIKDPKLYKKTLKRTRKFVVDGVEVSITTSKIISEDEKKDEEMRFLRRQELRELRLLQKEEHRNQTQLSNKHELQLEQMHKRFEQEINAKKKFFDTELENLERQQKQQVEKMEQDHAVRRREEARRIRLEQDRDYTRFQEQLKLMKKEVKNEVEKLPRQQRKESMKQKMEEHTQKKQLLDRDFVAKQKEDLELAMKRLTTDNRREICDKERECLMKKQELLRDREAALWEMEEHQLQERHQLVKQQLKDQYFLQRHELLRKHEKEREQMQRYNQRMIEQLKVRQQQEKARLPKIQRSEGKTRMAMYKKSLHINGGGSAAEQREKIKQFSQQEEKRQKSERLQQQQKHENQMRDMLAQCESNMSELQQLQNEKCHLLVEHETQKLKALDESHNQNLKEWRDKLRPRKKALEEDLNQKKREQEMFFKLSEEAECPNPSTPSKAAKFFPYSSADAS

[17] = biological target: Mitogen-activated protein kinase kinase kinase 3 (Homo sapiens) (UniProt Q99759); conditions: Compound concentration 1000.0 nM
[18] = biological target: Dual specificity mitogen-activated protein kinase kinase 2 (Homo sapiens) (UniProt P36507); conditions: Compound concentration 1000.0 nM
Sequence of Dual specificity mitogen-activated protein kinase kinase 2 (Homo sapiens) (P36507 whole entry): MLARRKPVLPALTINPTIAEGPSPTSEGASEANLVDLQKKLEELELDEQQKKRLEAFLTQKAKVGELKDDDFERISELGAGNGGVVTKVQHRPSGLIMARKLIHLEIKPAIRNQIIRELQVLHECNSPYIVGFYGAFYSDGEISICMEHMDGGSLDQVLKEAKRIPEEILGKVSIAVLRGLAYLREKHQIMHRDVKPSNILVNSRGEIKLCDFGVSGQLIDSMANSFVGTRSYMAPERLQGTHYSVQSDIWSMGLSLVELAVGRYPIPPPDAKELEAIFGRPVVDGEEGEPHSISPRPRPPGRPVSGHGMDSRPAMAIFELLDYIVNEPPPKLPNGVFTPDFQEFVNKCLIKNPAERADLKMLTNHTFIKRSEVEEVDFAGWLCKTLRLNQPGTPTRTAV

[19] = biological target: Myosin light chain kinase (Homo sapiens) (UniProt Q32MK0); conditions: Compound concentration 1000.0 nM
[20] = biological target: Muscle, skeletal receptor tyrosine-protein kinase (Homo sapiens) (UniProt O15146); conditions: Compound concentration 1000.0 nM
[21] = biological target: Myosin light chain kinase family member 4 (Homo sapiens) (UniProt Q86YV6); conditions: Compound concentration 1000.0 nM
[22] = biological target: Serine/threonine-protein kinase Nek7 (Homo sapiens) (UniProt Q8TDX7); conditions: Compound concentration 1000.0 nM
[23] = biological target: Mitogen-activated protein kinase 12 (Homo sapiens) (UniProt P53778); conditions: Compound concentration 1000.0 nM
[24] = biological target: Platelet-derived growth factor receptor beta (Homo sapiens) (UniProt P09619); conditions: Compound concentration 1000.0 nM
[25] = test system: Phosphatidylinositol 4,5-bisphosphate 3-kinase catalytic subunit alpha isoform (Homo sapiens), P42336 [C420R]; conditions: Compound concentration 1000.0 nM
[26] = test system: Phosphatidylinositol 4,5-bisphosphate 3-kinase catalytic subunit alpha isoform (Homo sapiens), P42336 [H1047L]; conditions: Compound concentration 1000.0 nM
[27] = biological target: Phosphatidylinositol 4,5-bisphosphate 3-kinase catalytic subunit delta isoform (Homo sapiens) (UniProt O00329); conditions: Compound concentration 1000.0 nM
[28] = biological target: cAMP-dependent protein kinase catalytic subunit alpha (Homo sapiens) (UniProt P17612); conditions: Compound concentration 1000.0 nM
[29] = biological target: Serine/threonine-protein kinase PLK1 (Homo sapiens) (UniProt P53350); conditions: Compound concentration 1000.0 nM
[30] = biological target: Protein kinase C epsilon type (Homo sapiens) (UniProt Q02156); conditions: Compound concentration 1000.0 nM
Sequence of Protein kinase C epsilon type (Homo sapiens) (Q02156 whole entry): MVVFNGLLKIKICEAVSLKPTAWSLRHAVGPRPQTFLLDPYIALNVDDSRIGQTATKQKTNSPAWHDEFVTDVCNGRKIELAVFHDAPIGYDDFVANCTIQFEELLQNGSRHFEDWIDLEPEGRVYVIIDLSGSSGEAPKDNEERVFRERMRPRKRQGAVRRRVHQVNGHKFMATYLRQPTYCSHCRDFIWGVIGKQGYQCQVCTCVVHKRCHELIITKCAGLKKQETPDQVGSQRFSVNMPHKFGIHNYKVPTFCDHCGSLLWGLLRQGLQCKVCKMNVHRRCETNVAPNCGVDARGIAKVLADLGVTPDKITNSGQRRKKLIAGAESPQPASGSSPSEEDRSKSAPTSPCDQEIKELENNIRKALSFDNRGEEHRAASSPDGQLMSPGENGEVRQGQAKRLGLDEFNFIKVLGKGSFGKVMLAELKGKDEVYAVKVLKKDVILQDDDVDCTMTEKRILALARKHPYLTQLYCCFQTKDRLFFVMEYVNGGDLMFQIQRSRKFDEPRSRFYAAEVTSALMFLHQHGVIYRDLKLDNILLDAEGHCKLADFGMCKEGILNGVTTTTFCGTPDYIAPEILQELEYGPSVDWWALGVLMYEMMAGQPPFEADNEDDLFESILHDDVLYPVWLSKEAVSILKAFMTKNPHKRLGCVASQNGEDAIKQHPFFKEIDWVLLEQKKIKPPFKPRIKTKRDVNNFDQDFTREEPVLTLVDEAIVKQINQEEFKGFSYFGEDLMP

[31] = biological target: Protein kinase C theta type (Homo sapiens) (UniProt Q04759); conditions: Compound concentration 1000.0 nM
[32] = biological target: cGMP-dependent protein kinase 2 (Homo sapiens) (UniProt Q13237); conditions: Compound concentration 1000.0 nM
[33] = biological target: Serine/threonine-protein kinase PRP4 homolog (Homo sapiens) (UniProt Q13523); conditions: Compound concentration 1000.0 nM
[34] = biological target: Proto-oncogene tyrosine-protein kinase receptor Ret (Homo sapiens) (UniProt P07949); conditions: Compound concentration 1000.0 nM
[35] = test system: Proto-oncogene tyrosine-protein kinase receptor Ret (Homo sapiens), P07949 [M918T]; conditions: Compound concentration 1000.0 nM
[36] = biological target: Ribosomal protein S6 kinase alpha-3 (Homo sapiens) (UniProt P51812); conditions: Compound concentration 1000.0 nM
Sequence of Ribosomal protein S6 kinase alpha-3 (Homo sapiens) (P51812 whole entry): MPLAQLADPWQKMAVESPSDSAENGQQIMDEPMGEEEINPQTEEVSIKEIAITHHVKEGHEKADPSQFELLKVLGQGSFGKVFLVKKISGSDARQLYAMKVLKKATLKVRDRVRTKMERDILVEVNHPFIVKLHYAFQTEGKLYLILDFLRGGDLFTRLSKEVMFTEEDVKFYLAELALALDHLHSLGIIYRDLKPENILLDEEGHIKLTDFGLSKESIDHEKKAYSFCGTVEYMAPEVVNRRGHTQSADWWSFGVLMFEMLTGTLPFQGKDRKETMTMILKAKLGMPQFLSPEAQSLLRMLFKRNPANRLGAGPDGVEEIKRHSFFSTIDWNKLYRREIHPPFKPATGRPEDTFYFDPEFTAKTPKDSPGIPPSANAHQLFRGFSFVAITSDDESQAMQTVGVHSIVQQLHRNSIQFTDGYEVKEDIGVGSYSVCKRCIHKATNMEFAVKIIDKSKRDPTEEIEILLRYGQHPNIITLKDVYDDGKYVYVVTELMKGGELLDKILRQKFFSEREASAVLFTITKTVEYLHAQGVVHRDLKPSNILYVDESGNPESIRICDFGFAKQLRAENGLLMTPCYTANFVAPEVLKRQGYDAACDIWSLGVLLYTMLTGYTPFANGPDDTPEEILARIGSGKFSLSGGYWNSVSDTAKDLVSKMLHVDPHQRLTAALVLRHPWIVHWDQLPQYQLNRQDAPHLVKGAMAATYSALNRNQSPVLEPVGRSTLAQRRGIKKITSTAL

[37] = biological target: Serine/threonine-protein kinase SIK2 (Homo sapiens) (UniProt Q9H0K1); conditions: Compound concentration 1000.0 nM
[38] = biological target: Tyrosine-protein kinase SYK (Homo sapiens) (UniProt P43405); conditions: Compound concentration 1000.0 nM
[39] = biological target: Serine/threonine-protein kinase TAO3 (Homo sapiens) (UniProt Q9H2K8); conditions: Compound concentration 1000.0 nM
[40] = biological target: NT-3 growth factor receptor (Homo sapiens) (UniProt Q16288); conditions: Compound concentration 1000.0 nM
Sequence of NT-3 growth factor receptor (Homo sapiens) (Q16288 32-839 limits assumed): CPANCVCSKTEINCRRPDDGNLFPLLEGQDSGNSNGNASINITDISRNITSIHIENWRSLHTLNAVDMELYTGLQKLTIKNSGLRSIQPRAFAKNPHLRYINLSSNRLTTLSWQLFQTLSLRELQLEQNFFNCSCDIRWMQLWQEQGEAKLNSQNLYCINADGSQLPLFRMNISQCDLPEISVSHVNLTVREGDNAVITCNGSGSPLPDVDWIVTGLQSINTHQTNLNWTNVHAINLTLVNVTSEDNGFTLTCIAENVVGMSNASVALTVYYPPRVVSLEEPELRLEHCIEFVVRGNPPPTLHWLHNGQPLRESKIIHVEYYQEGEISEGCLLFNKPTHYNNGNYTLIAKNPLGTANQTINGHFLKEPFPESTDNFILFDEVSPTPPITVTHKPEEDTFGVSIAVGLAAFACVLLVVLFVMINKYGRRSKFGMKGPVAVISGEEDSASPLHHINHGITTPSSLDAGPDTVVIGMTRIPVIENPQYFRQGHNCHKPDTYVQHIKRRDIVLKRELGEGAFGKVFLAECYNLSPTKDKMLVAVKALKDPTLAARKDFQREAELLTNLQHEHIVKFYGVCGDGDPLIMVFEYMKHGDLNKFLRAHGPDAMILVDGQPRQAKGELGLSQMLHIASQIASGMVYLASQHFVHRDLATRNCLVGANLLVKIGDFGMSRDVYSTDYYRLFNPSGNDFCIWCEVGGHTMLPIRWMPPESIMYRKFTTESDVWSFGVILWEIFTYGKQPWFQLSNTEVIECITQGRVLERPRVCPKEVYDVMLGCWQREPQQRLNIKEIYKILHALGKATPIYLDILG

[41] = biological target: Dual specificity protein kinase TTK (Homo sapiens) (UniProt P33981); conditions: Compound concentration 1000.0 nM
[42] = biological target: Tyrosine-protein kinase receptor TYRO3 (Homo sapiens) (UniProt Q06418); conditions: Compound concentration 1000.0 nM
[43] = biological target: Wee1-like protein kinase (Homo sapiens) (UniProt P30291); conditions: Compound concentration 1000.0 nM
[44] = biological target: Serine/threonine-protein kinase WNK1 (Homo sapiens) (UniProt Q9H4A3); conditions: Compound concentration 1000.0 nM
[45] = biological target: Histamine H2 receptor (Homo sapiens) (UniProt P25021); conditions: Compound concentration 10.0 uM

## O=C(Nc1cccnn1)N1CCC(=Cc2cccc(Oc3ccc(C(F)(F)F)cn3)c2)CC1
[1]
  residual activity: 100%
[2]
  residual activity: 100%
[3]
  residual activity: 100%
[4]
  residual activity: 93%
[5]
  residual activity: 100%
[6]
  residual activity: 100%
[7]
  residual activity: 100%
[8]
  residual activity: 81%
[9]
  residual activity: 79%
[10]
  residual activity: 88%
[11]
  residual activity: 100%
[12]
  residual activity: 100%
[13]
  residual activity: 100%
[14]
  residual activity: 91%
[15]
  residual activity: 100%
[16]
  residual activity: 74%
[17]
  residual activity: 100%
[18]
  residual activity: 100%
[19]
  residual activity: 100%
[20]
  residual activity: 100%
[21]
  residual activity: 100%
[22]
  residual activity: 100%
[23]
  residual activity: 100%
[24]
  residual activity: 97%
[25]
  residual activity: 100%
[26]
  residual activity: 100%
[27]
  residual activity: 81%
[28]
  residual activity: 100%
[29]
  residual activity: 100%
[30]
  residual activity: 82%
[31]
  residual activity: 67%
[32]
  residual activity: 100%
[33]
  residual activity: 100%
[34]
  residual activity: 100%
[35]
  residual activity: 80%
[36]
  residual activity: 100%
[37]
  residual activity: 100%
[38]
  residual activity: 100%
[39]
  residual activity: 42%
[40]
  residual activity: 100%
[41]
  residual activity: 100%
[42]
  residual activity: 100%
[43]
  residual activity: 97%
[44]
  residual activity: 100%
[45]
  inhibition: 17.3%

## O=C(Nc1cccnn1)N1CC(C/C=C/c2cncc(Oc3ccc(C(F)(F)F)cn3)n2)C1
[1]
  residual activity: 97%
[2]
  residual activity: 100%
[3]
  residual activity: 100%
[4]
  residual activity: 100%
[5]
  residual activity: 85%
[6]
  residual activity: 100%
[7]
  residual activity: 100%
[8]
  residual activity: 100%
[9]
  residual activity: 99%
[10]
  residual activity: 100%
[11]
  residual activity: 66%
[12]
  residual activity: 100%
[13]
  residual activity: 100%
[14]
  residual activity: 80%
[15]
  residual activity: 66%
[16]
  residual activity: 94%
[17]
  residual activity: 79%
[18]
  residual activity: 95%
[19]
  residual activity: 85%
[20]
  residual activity: 97%
[21]
  residual activity: 100%
[22]
  residual activity: 100%
[23]
  residual activity: 100%
[24]
  residual activity: 81%
[25]
  residual activity: 66%
[26]
  residual activity: 100%
[27]
  residual activity: 64%
[28]
  residual activity: 93%
[29]
  residual activity: 87%
[30]
  residual activity: 100%
[31]
  residual activity: 100%
[32]
  residual activity: 91%
[33]
  residual activity: 100%
[34]
  residual activity: 100%
[35]
  residual activity: 96%
[36]
  residual activity: 73%
[37]
  residual activity: 100%
[38]
  residual activity: 100%
[39]
  residual activity: 82%
[40]
  residual activity: 85%
[41]
  residual activity: 100%
[42]
  residual activity: 100%
[43]
  residual activity: 100%
[44]
  residual activity: 100%
[45]
  inhibition: -3.96%
